Laboratory results taken from US20240376074A1, “NAMPT INHIBITORS AND USES THEREOF” (Remedy Plan, Inc., priority 2021, published 2024).

Biological target: T1, NAMPT (Homo sapiens, UniProt P43490)
T1 construct: purchased Abcam ab221819
Assay: NAMPT Activity Assay (Abcam #ab221819)
Format: biochemical
Conditions: purified NAMPT, percent inhibition from OD450 nm; compound concentration not given
Procedure: The NAMPT Activity Assay (Abcam #ab221819) was performed following manufacturers two-step reaction protocol. Briefly, compounds were added to a clear 96-well plate using the HP D300e Digital Dispenser. Purified NAMPT was added to all wells except the No NAMPT controls. Reaction Mix #1 was added to each well and the plate was incubated at 30*C for 1 hr followed by the addition of Reaction Mix #2. Absorbance was measured at OD450 nm using a multimode plate reader. Readings were recorded for 5 minutes and percent inhibition was calculated using: (1-(OD450 nm compound/OD450nm no drug))*100.

T1 sequence (P43490 whole entry): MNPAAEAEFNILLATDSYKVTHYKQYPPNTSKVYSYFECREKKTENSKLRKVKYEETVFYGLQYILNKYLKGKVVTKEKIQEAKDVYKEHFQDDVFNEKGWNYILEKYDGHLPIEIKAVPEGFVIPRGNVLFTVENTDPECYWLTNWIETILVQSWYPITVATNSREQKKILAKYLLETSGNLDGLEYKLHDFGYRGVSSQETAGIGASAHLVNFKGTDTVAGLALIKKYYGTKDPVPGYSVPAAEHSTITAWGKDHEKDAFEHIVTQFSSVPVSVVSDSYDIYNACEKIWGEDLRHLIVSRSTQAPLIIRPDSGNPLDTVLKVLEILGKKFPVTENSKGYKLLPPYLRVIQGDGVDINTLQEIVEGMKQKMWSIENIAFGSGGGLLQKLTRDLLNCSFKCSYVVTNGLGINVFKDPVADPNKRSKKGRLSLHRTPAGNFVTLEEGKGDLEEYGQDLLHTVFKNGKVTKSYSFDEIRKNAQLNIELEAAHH

| SMILES | NAMPT Inhibition Code* |
| --- | --- |
| CC(=O)N(CC(F)F)c1ccc(-c2ccc(C(=O)NCCCn3ccnc3)cn2)cc1Cl [I-T2288, 6-[4-[Acetyl(2,2-difluoroethyl)amino]-3-chloro-phenyl]-N-(3-imidazol-1-ylpropyl)pyridine-3-carboxamide] | C (C = ≥66% inhibition) |
| CC(=O)N(CC1CC1)c1ccc(-c2ccc(NC(=O)COc3cccnc3)cn2)cc1Cl [I-T2119, N-[6-[4-[acetyl(cyclopropylmethyl)amino]-3-chloro-phenyl]-3-pyridyl]-2-(3-pyridyloxy)-acetamide] | C (C = ≥66% inhibition) |
| CC(=O)N(CC1CC1)c1ccc(-c2ccc(C(=O)NCc3cccnn3)cn2)cc1Cl [I-T2146, 6-[4-[Acetyl(cyclopropylmethyl)amino]-3-chloro-phenyl]-N-(pyridazin-3-ylmethyl)pyridine-3-carboxamide] | B (B = >33 to <66% inhibition) |
| CC(=O)N(CC1CC1)c1ccc(-c2ccc(C(=O)NCc3ccccc3)cn2)cc1Cl [I-T2113, 6-[4-[Acetyl(cyclopropylmethyl)amino]-3-chloro-phenyl]-N-benzyl-pyridine-3-carboxamide] | C (C = ≥66% inhibition) |
| COC(=O)c1cc(-c2ccc(C(=O)NCCCn3ccnc3)cn2)ccc1N(CC1CC1)C(C)=O [I-T2300, Methyl 2-[acetyl(cyclopropylmethyl)amino]-5-[5-(3-imidazol-1-ylpropylcarbamoyl)-2-pyridyl]benzoate] | C (C = ≥66% inhibition) |
| CC(=O)N(CC1CC1)c1ccc(-c2ccc(C(=O)NCCc3ccc(C)nc3)cn2)cc1Cl [I-T2309, 6-[4-[Acetyl(cyclopropylmethyl)amino]-3-chloro-phenyl]-N-[2-(6-methyl-3-pyridyl)ethyl]pyridine-3-carboxamide] | B (B = >33 to <66% inhibition) |
| COC(=O)c1cc(-c2ccc(C(=O)NCCc3cccnc3)cn2)ccc1N(CC1CC1)C(C)=O [I-T2296, Methyl 2-[acetyl(cyclopropylmethyl)amino]-5-[5-[2-(3-pyridyl)ethylcarbamoyl]-2-pyridyl]benzoate] | C (C = ≥66% inhibition) |
| CC(=O)N(CC1CC1)c1ccc(-c2ccc(C(=O)NCC3CCOC3)cn2)cc1Cl (centres unmarked) [I-T2115, 6-[4-[Acetyl(cyclopropylmethyl)amino]-3-chloro-phenyl]-N-(tetrahydrofuran-3-ylmethyl) pyridine-3-carboxamide] | A (*A = <33% inhibition) |
| CC(=O)N(CC1CC1)c1ccc(-c2ccc(NC(=O)C3CC3c3cccnc3)cn2)cc1Cl (centres unmarked) [I-T2289, N-[6-[4-[acetyl(cyclopropylmethyl)amino]-3-chloro-phenyl]-3-pyridyl]-2-(3-pyridyl)cyclo propanecarboxamide] | C (C = ≥66% inhibition) |
| CC(=O)N(CC1COC1)c1ccc(-c2ccc(C(=O)NCc3ccccc3)cn2)cc1Cl [I-T2327, 6-[4-[acetyl(oxetan-3-ylmethyl)amino]-3-chloro-phenyl]-N-benzyl-pyridine-3-carboxamide] | A (*A = <33% inhibition) |
| CC(=O)N(CC(F)F)c1ccc(-c2ccc(NC(=O)COc3cccnc3)cn2)cc1Cl [I-T2291, N-[6-[4-[acetyl(2,2-difluoroethyl)amino]-3-chloro-phenyl]-3-pyridyl]-2-(3-pyridyloxy)acetamide] | C (C = ≥66% inhibition) |
| CC(=O)N(CC(F)F)c1ccc(-c2ccc(C(=O)NCc3ccccc3)cn2)cc1Cl [I-T2284, 6-[4-[Acetyl(2,2-difluoroethyl)amino]-3-chloro-phenyl]-N-benzyl-pyridine-3-carboxamide] | A (*A = <33% inhibition) |
| CC(=O)N(CC1CC1)c1ccc(-c2ccc(C(=O)Nc3ccc4[nH]cnc4c3)cn2)cc1Cl [I-T2137, 6-[4-[Acetyl(cyclopropylmethyl)amino]-3-chloro-phenyl]-N-(1H-benzimidazol-5-yl)pyridine-3-carboxamide] | C (C = ≥66% inhibition) |
| CC(=O)N(CC1CC1)c1ccc(-c2ccc(C(=O)NCc3c[nH]cn3)cn2)cc1Cl [I-T2151, 6-[4-[Acetyl(cyclopropylmethyl)amino]-3-chloro-phenyl]-N-(1H-imidazol-4-ylmethyl)pyridine-3-carboxamide] | A (*A = <33% inhibition) |
| CC(=O)N(CC1CC1)c1ccc(-c2ccc(NC(=O)Cc3cccnc3)cn2)cc1Cl [I-T2267, N-[6-[4-[acetyl(cyclopropylmethyl)amino]-3-chloro-phenyl]-3-pyridyl]-2-(3-pyridyl)acetamide] | C (C = ≥66% inhibition) |
| CC(=O)N(CC1CC1)c1ccc(-c2ccc(C(=O)N3Cc4ccccc4C3)cn2)cc1Cl [I-T2270, N-[2-Chloro-4-[5-(isoindoline-2-carbonyl)-2-pyridyl]phenyl]-N-(cyclopropylmethyl)acetamide] | B (B = >33 to <66% inhibition) |
| COC(=O)c1cc(-c2ccc(C(=O)Nc3cnc4nccn4c3)cn2)ccc1N(CC1CC1)C(C)=O [I-T2295, Methyl 2-[acetyl(cyclopropylmethyl)amino]-5-[5-(imidazo[1,2-a]pyrimidin-6-ylcarbamoyl)-2-pyridyl]benzoate] | C (C = ≥66% inhibition) |
| CC(=O)N(CC1CC1)c1ccc(-c2ccc(C(=O)NCCc3cn[nH]c3)cn2)cc1Cl [I-T2111, 6-[4-[Acetyl(cyclopropylmethyl)amino]-3-chloro-phenyl]-N-[2-(1H-pyrazol-4-yl)ethyl]pyridine-3-carboxamide] | C (C = ≥66% inhibition) |

Other lines, results leading:

| NAMPT Inhibition Code* | SMILES |
| --- | --- |
| C (C = ≥66% inhibition) | CC(=O)N(CC1CC1)c1ccc(-c2ccc(C(=O)NCc3cccc(F)c3)cn2)cc1Cl [I-T2341, 6-[4-[acetyl(cyclopropylmethyl)amino]-3-chloro-phenyl]-N-[(3-fluorophenyl)methyl]pyridine-3-carboxamide] |
| B (B = >33 to <66% inhibition) | CC(=O)N(CC1CC1)c1ccc(-c2ccc(NC(=O)C(F)c3ccccc3)cn2)cc1Cl (centres unmarked) [I-T2331, N-[6-[4-[acetyl(cyclopropylmethyl)amino]-3-chloro-phenyl]-3-pyridyl]-2-fluoro-2-phenyl-acetamide] |
| C (C = ≥66% inhibition) | CC(=O)N(CC1CC1)c1ccc(-c2ccc(NC(=O)COc3ccccc3)cn2)cc1Cl [I-T2328, N-[6-[4-[acetyl(cyclopropylmethyl)amino]-3-chloro-phenyl]-3-pyridyl]-2-phenoxy-acetamide] |
| C (C = ≥66% inhibition) | CC(=O)N(CC1CC1)c1ccc(-c2ccc(C(=O)NCCc3ccsc3)cn2)cc1Cl [I-T2353, 6-[4-[acetyl(cyclopropylmethyl)amino]-3-chloro-phenyl]-N-[2-(3-thienyl)ethyl]pyridine-3-carboxamide] |
| B (B = >33 to <66% inhibition) | CC(=O)N(CC1CC1)c1ccc(-c2ccc(NC(=O)Cc3ccc(F)cc3)cn2)cc1Cl [I-T2390, N-[6-[4-[acetyl(cyclopropylmethyl)amino]-3-chloro-phenyl]-3-pyridyl]-2-(4-fluorophenyl)acetamide] |
| A (*A = <33% inhibition) | CC(=O)N(CC1CC1)c1ccc(-c2ccc(C(=O)NCc3ncco3)cn2)cc1Cl [I-T2364, 6-[4-[acetyl(cyclopropylmethyl)amino]-3-chloro-phenyl]-N-(oxazol-2-ylmethyl)pyridine-3-carboxamide] |
| C (C = ≥66% inhibition) | CC(=O)N(CC1CC1)c1ccc(-c2ccc(C(=O)N3Cc4ccc(F)cc4C3)cn2)cc1Cl [I-T2336, N-[2-chloro-4-[5-(5-fluoroisoindoline-2-carbonyl)-2-pyridyl]phenyl]-N-(cyclopropylmethyl) acetamide] |
| A (*A = <33% inhibition) | CC(=O)N(CC1CC1)c1ccc(-c2ccc(C(=O)NCC3CCCCO3)cn2)cc1Cl (centres unmarked) [I-T2340, 6-[4-[acetyl(cyclopropylmethyl)amino]-3-chloro-phenyl]-N-(tetrahydropyran-2-ylmethyl)pyridine-3-carboxamide] |
| A (*A = <33% inhibition) | CC(=O)N(CC1CC1)c1ccc(-c2ccc(C(=O)NCC3CCCN(C)C3)cn2)cc1Cl (centres unmarked) [I-T2338, 6-[4-[acetyl(cyclopropylmethyl)amino]-3-chloro-phenyl]-N-[(1-methyl-3-piperidyl)methyl]pyridine-3-carboxamide] |
| C (C = ≥66% inhibition) | CC(=O)N(CC1CC1)c1ccc(-c2ccc(C(=O)NCCc3cncs3)cn2)cc1Cl [I-T2360, 6-[4-[acetyl(cyclopropylmethyl)amino]-3-chloro-phenyl]-N-(2-thiazol-5-ylethyl)pyridine-3-carboxamide] |
| A (*A = <33% inhibition) | CC(=O)N(CC1CC1)c1ccc(-c2ccc(C(=O)NCCN3CCCCC3)cn2)cc1Cl [I-T2339, 6-[4-[acetyl(cyclopropylmethyl)amino]-3-chloro-phenyl]-N-[2-(1-piperidyl)ethyl]pyridine-3-carboxamide] |
| C (C = ≥66% inhibition) | CC(=O)N(CC1CC1)c1ccc(-c2ccc(C(=O)NCCc3cccc(F)c3)cn2)cc1Cl [I-T2342, 6-[4-[acetyl(cyclopropylmethyl)amino]-3-chloro-phenyl]-N-[2-(3-fluorophenyl)ethyl]pyridine-3-carboxamide] |
| A (*A = <33% inhibition) | CC(=O)N(CC1CC1)c1ccc(-c2ccc(C(=O)NCC3CC(F)(F)C3)cn2)cc1Cl [I-T2345, 6-[4-[acetyl(cyclopropylmethyl)amino]-3-chloro-phenyl]-N-[(3,3-difluorocyclobutyl)methyl]pyridine-3-carboxamide] |
| C (C = ≥66% inhibition) | CC(=O)N(CC1CC1)c1ccc(-c2ccc(NC(=O)Cc3ccc(Cl)cc3)cn2)cc1Cl [I-T2393, N-[6-[4-[acetyl(cyclopropylmethyl)amino]-3-chloro-phenyl]-3-pyridyl]-2-(4-chlorophenyl)acetamide] |
